The numbers were not newly measured in patent US20050272687A1, “Stable S-adenosyl-l-methionine” (priority 2004, published 2005), which cites them from elsewhere.

Structures are written as SMILES.

Data set [1] concerns nucleolar 2-O-methyltransferase.
For data set [2] the following is noted: same conditions as in example 10 (room temperature, light, closed bottle), after 4 months.
The conditions of data set [3]: during the course of the clinical trial.
Data set [4] has as its system alcoholic liver cirrhosis. Particulars: oral; as compared with a placebo treated group.
The test system of data set [5] is beta-adrenergic.
In data set [6] the test system is S-adenosyl-1-methionine-dependent methyltransferases.
For data set [7] the following is noted: in vivo.

`C[S@@+](CC[C@H](N)C(=O)O)C[C@H]1O[C@@H](n2cnc3c(N)ncnc32)[C@H](O)[C@@H]1O` [(S,S)-S-adenosyl-1-methionine]: in data set [1], the “tightness of enzyme binding relative to (R,S)-S-adenosyl-1-methionine” value is recorded as 10 fold. Regarding `C[S+](CC[C@H](N)C(=O)O)C[C@H]1O[C@@H](n2cnc3c(N)ncnc32)[C@H](O)[C@@H]1O.Cc1ccc(S(=O)(=O)[O-])cc1` (stereo partly drawn) [S-adenosyl-1-methionine tosylate], the deterioration in data set [2] is on record as 92.9%. `C[S+](CC[C@H](N)C(=O)[O-])C[C@H]1O[C@@H](n2cnc3c(N)ncnc32)[C@H](O)[C@@H]1O` (stereo partly drawn) [S-adenosyl-1-methionine]: in data set [3], the “(R,S) S-adenosyl-1-methionine share after epimerization” value is on record as 55% and the “(S,S) S-adenosyl-1-methionine share after epimerization” value is given as 45%. For the same compound, the “overall mortality and/or progression to liver transplant” value in data set [4] is recorded as 29% vs 12%. On to `CC(C)NCC(O)COc1cccc2ccccc12` (stereo not drawn) [propranolol], for which the “potency of L-form relative to D-enantiomer” value in data set [5] is recorded as 100 times. Turning to `C[S@@+](CC[C@@H](N)C(=O)O)C[C@H]1O[C@@H](n2cnc3c(N)ncnc32)[C@H](O)[C@@H]1O` (racemic) [(+)-SAM, (R,S)-S-adenosyl-1-methionine], the “inhibition of enzyme-catalyzed transmethylation reactions” value in data set [6] is recorded as “potent inhibitor”. As to `C[S+](CC[C@H](N)C(=O)O)C[C@H]1O[C@@H](n2cnc3c(N)ncnc32)[C@H](O)[C@@H]1O.C[S+](CC[C@H](N)C(=O)O)C[C@H]1O[C@@H](n2cnc3c(N)ncnc32)[C@H](O)[C@@H]1O.O=S(=O)([O-])CCCCS(=O)(=O)[O-]` (stereo partly drawn) [S-adenosyl-1-methionine 1,4 butanedisulfonate], the deterioration in data set [2] was 43.9%. In data set [7], the “oral absorption compared with other salts” value was “better absorbed orally than any other salts”.
